Measurements published in ChEMBL document CHEMBL4725353, “Discovery of Pyrido[2,3-b]indole Derivatives with Gram-Negative Activity Targeting Both DNA Gyrase and Topoisomerase IV” (J Med Chem, 2020).
Values after ≈ are worked out from the molar mass of the structure shown.

How the values were obtained:
Escherichia coli [1] = assay: microbe, parasite or virus in culture; conditions: ATCC 29213
Description: Antibacterial activity against Escherichia coli ATCC 29213 assessed as reduction in microbial growth preincubated for 20 to 24 hrs followed by subculture in absence of compound and measured on day 4 CLSI based broth microdilution susceptibility method

Escherichia coli [2] = assay: microbe, parasite or virus in culture; conditions: ATCC 25922
Description: Antibacterial activity against Escherichia coli ATCC 25922 assessed as reduction in microbial growth preincubated for 20 to 24 hrs followed by subculture in absence of compound and measured on day 4 CLSI based broth microdilution susceptibility method

[3] = Distribution coefficient between octanol and buffer, log D of the compound in pH 7.4 buffer by CAMDIS assay; format: physicochemical
physchem [4] = assay: physchem
Description: Ionization constant (acid), pKa of the compound by photometric titration assay

physchem [5] = conditions: PBS, pH 6.5
Description: Solubility of compound in PBS at pH 6.5 incubated for over night by HPLC-UV based lyophilization solubility assay

in vitro = conditions: mouse, liver microsomes
Description: Intrinsic clearance in mouse liver microsomes preincubated for 10 mins followed by NADPH regenerating system addition and measured up to 30 mins by LC/MS-MS analysis

MIC (Escherichia coli [1]) [µg/mL] | MIC (Escherichia coli [2]) [µg/mL] | logD [3] | pKa (physchem [4]) | solubility (physchem [5]) [µg/mL] | CLint scaled at 0.5 h (in vitro) [mL/min/kg] | Structure (SMILES)
0.25 (≈ 0.537 µM) | > 16 | – | – | – | – | CCNc1cc(F)cc2c1[nH]c1ncc(-c3cncc(C#N)c3)c(-n3cnc(C(F)(F)F)c3)c12
< 0.125 | 0.5 (≈ 0.974 µM) | 3.41 | – | – | – | CCNc1cc(F)cc2c1[nH]c1ncc(-c3cncc(C(=O)NOC)c3)c(-n3ccc(C(F)(F)F)n3)c12
< 0.056 | 0.73 (≈ 1.36 µM) | 3.38 | – | – | – | CCNc1cc(F)cc2c1[nH]c1ncc(-c3cncc(Cc4n[nH]c(=O)o4)c3)c(-n3ccc(C(F)(F)F)n3)c12
< 0.125 | 1 (≈ 1.77 µM) | 2.54 | – | – | – | CCNc1cc(F)cc2c1[nH]c1ncc(-c3cnc4c(c3)c(=O)c(C(=O)O)cn4C)c(-n3ccc(C(F)(F)F)n3)c12
< 0.125 | 2 (≈ 4 µM) | 3.05 | – | – | – | CCNc1cc(F)cc2c1[nH]c1ncc(-c3cncc(C(=O)NO)c3)c(-n3ccc(C(F)(F)F)n3)c12
< 0.25 | 4 (≈ 7.82 µM) | – | 9.35 | – | – | CCNc1cc(F)cc2c1[nH]c1ncc(-c3cnc(NC4CNC4)nc3)c(-n3ccc(C(F)(F)F)n3)c12
< 0.056 | 0.71 (≈ 1.36 µM) | 3.66 | – | – | – | CCNc1cc(F)cc2c1[nH]c1ncc(-c3cncc(Cc4ncco4)c3)c(-n3ccc(C(F)(F)F)n3)c12
– | 8 (≈ 16.7 µM) | – | – | – | – | CCNc1cc(F)cc2c1[nH]c1ncc(-c3cncc(C#N)c3)c(-n3nc(C(F)(F)F)cc3C)c12
0.5 (≈ 1.01 µM) | 8 (≈ 16.1 µM) | 2.28 | – | – | – | CCNc1cc(F)cc2c1[nH]c1ncc(-c3cncc(C(=N)NC)c3)c(-n3ccc(C(F)(F)F)n3)c12
< 0.25 | > 16 | – | – | < 0.3 | – | CCNc1cc(F)cc2c1[nH]c1ncc(-c3cncc(C#N)c3)c(-n3ccc(C(C)(C)C)n3)c12
0.63 (≈ 1.38 µM) | 1 (≈ 2.19 µM) | – | 4.39 | 7.6 (≈ 16.7 µM) | 25.9 | CCNc1cc(F)cc2c1[nH]c1ncc(-c3cnc(N)nc3)c(-n3ccc(C(F)(F)F)n3)c12
< 0.016 | 2 (≈ 4.12 µM) | – | – | < 0.3 | 37 | CCNc1cc(F)cc2c1[nH]c1ncc(-c3cnc(OCC)nc3)c(-n3ccc(C(F)(F)F)n3)c12
< 0.25 | 1 (≈ 1.9 µM) | 3.64 | – | – | – | CCNc1cc(F)cc2c1[nH]c1ncc(-c3cncc(N4CCOCC4)c3)c(-n3ccc(C(F)(F)F)n3)c12
< 0.016 | 1 (≈ 2.15 µM) | – | – | < 1 | – | CCNc1cc(F)cc2c1[nH]c1ncc(-c3cncc(C#N)c3)c(-n3cc(C(F)(F)F)cn3)c12
< 0.125 | 1 (≈ 2.01 µM) | 3.1 | – | – | – | CCNc1cc(F)cc2c1[nH]c1ncc(-c3cncc(CC(N)=O)c3)c(-n3ccc(C(F)(F)F)n3)c12
> 16 | > 16 | – | – | – | – | CCNc1cc(F)cc2c1[nH]c1ncc(-c3cncc(C#N)c3)c(-n3ccc(C(=O)O)n3)c12
< 0.016 | 4 (≈ 7.21 µM) | – | – | 133 (≈ 240 µM) | – | CCNc1cc(F)cc2c1[nH]c1ncc(-c3cnc(NCC4(C(=O)O)CC4)nc3)c(-n3ccc(C(F)(F)F)n3)c12
< 0.057 | 2.83 (≈ 5.44 µM) | 3.62 | – | – | – | CCNc1cc(F)cc2c1[nH]c1ncc(-c3cncc(Cc4ncc[nH]4)c3)c(-n3ccc(C(F)(F)F)n3)c12
– | > 16 | – | – | – | – | CCNc1cc(F)cc2c1[nH]c1ncc(-c3cncc(C#N)c3)c(-n3cc(C(N)=O)c(C(F)(F)F)n3)c12

MIC (Escherichia coli [1]) [µg/mL] | MIC (Escherichia coli [2]) [µg/mL] | logD [3] | pKa (physchem [4]) | solubility (physchem [5]) [µg/mL] | CLint scaled at 0.5 h (in vitro) [mL/min/kg] | Structure (SMILES)
< 0.016 | 0.125 (≈ 0.296 µM) | – | – | < 1 | – | CCNc1cc(F)cc2c1[nH]c1ncc(-c3cncc(C#N)c3)c(-n3ccc(C#N)n3)c12
0.063 (≈ 0.133 µM) | > 16 | – | – | – | – | CCNc1cc(F)cc2c1[nH]c1ncc(-c3cncc(C#N)c3)c(-c3cccc(C(F)(F)F)c3)c12
0.5 (≈ 0.953 µM) | 8 (≈ 15.3 µM) | 2.8 | – | – | – | CCNc1cc(F)cc2c1[nH]c1ncc(-c3cncc(N4CCNCC4)c3)c(-n3ccc(C(F)(F)F)n3)c12
– | > 16 | – | – | – | – | CCNc1cc(F)cc2c1[nH]c1ncc(-c3cncc(C#N)c3)c(-n3cc(C(=O)O)c(C(F)(F)F)n3)c12
< 0.016 | 0.375 (≈ 0.714 µM) | – | – | 67 (≈ 128 µM) | 43.8 | CCNc1cc(F)cc2c1[nH]c1ncc(-c3cnc(C4(C(=O)O)CC4)nc3)c(-n3ccc(C(F)(F)F)n3)c12
– | 2 (≈ 3.72 µM) | – | – | – | – | CCNc1cc(F)cc2c1[nH]c1ncc(-c3cncc(C#N)c3)c(-n3cc(C(=O)OCC)c(C(F)(F)F)n3)c12
0.63 (≈ 1.17 µM) | 1 (≈ 1.85 µM) | – | 9.06 | – | – | CCNc1cc(F)cc2c1[nH]c1ncc(-c3cnc(OC4CCNCC4)nc3)c(-n3ccc(C(F)(F)F)n3)c12
< 0.016 | 0.5 (≈ 1.06 µM) | – | – | < 1 | 20.2 | CCNc1cc(F)cc2c1[nH]c1ncc(-c3cnc(OC)nc3)c(-n3ccc(C(F)(F)F)n3)c12
– | 4 (≈ 9.12 µM) | – | – | – | – | CCNc1cc(F)cc2c1[nH]c1ncc(-c3cncc(C#N)c3)c(-n3cc4c(n3)CNC4)c12
0.31 (≈ 0.59 µM) | 1 (≈ 1.9 µM) | – | 8.6 | < 1 | 61.4 | CCNc1cc(F)cc2c1[nH]c1ncc(-c3cnc(N4CCNCC4)nc3)c(-n3ccc(C(F)(F)F)n3)c12
< 0.016 | 0.5 (≈ 1.1 µM) | – | – | – | – | CCNc1cc(F)cc2c1[nH]c1ncc(-c3cnc(C)nc3)c(-n3ccc(C(F)(F)F)n3)c12
< 0.016 | 1 (≈ 1.9 µM) | – | – | < 1 | 24.2 | CCNc1cc(F)cc2c1[nH]c1ncc(-c3cnc(N4CCOCC4)nc3)c(-n3ccc(C(F)(F)F)n3)c12
< 0.016 | 0.75 (≈ 1.47 µM) | – | – | 148 (≈ 289 µM) | 22.9 | CNc1cc(F)cc2c1[nH]c1ncc(-c3cnc(C4(C(=O)O)CC4)nc3)c(-n3ccc(C(F)(F)F)n3)c12
< 0.016 | 0.5 (≈ 1.04 µM) | – | – | < 1 | – | CCNc1cc(F)cc2c1[nH]c1ncc(-c3cncc(C#N)c3)c(-c3nc(C(F)(F)F)cs3)c12
< 0.25 | > 16 | – | – | < 0.7 | – | CCNc1cc(F)cc2c1[nH]c1ncc(-c3cncc(C#N)c3)c(-n3ccc(C(C)C)n3)c12
< 0.25 | 2 (≈ 4.86 µM) | – | – | < 1 | – | CCNc1cc(F)cc2c1[nH]c1ncc(-c3cncc(C#N)c3)c(-n3ccc(C)n3)c12
– | 2 (≈ 4.09 µM) | – | – | < 1 | – | CCNc1cc(F)cc2c1[nH]c1ncc(-c3cncc(C#N)c3)c(-n3nc(C(F)F)c4c3CNC4)c12
< 0.016 | 2 (≈ 3.59 µM) | – | – | < 1 | 43.5 | CCNc1cc(F)cc2c1[nH]c1ncc(-c3cnc(OCC(C)(C)C(=O)O)nc3)c(-n3ccc(C(F)(F)F)n3)c12
0.63 (≈ 1.17 µM) | 1 (≈ 1.85 µM) | – | 9.52 | 7.6 (≈ 14.1 µM) | 57.9 | CCNc1cc(F)cc2c1[nH]c1ncc(-c3cnc(NC4CCNCC4)nc3)c(-n3ccc(C(F)(F)F)n3)c12

MIC (Escherichia coli [1]) [µg/mL] | MIC (Escherichia coli [2]) [µg/mL] | logD [3] | pKa (physchem [4]) | solubility (physchem [5]) [µg/mL] | CLint scaled at 0.5 h (in vitro) [mL/min/kg] | Structure (SMILES)
< 0.016 | 0.25 (≈ 0.531 µM) | – | – | < 1 | 53.1 | CCNc1cc(F)cc2c1[nH]c1ncc(-c3cnc(NC)nc3)c(-n3ccc(C(F)(F)F)n3)c12
0.125 (≈ 0.303 µM) | 8 (≈ 19.4 µM) | – | 2.02 | – | – | CCNc1cc(F)cc2c1[nH]c1ncc(-c3cncc(C#N)c3)c(-n3ccc(N)n3)c12
< 0.25 | < 0.25 | – | – | < 0.2 | 55.5 | CCNc1cc(F)cc2c1[nH]c1ncc(-c3cnc(C(N)=O)nc3)c(-n3ccc(C(F)(F)F)n3)c12
– | 4 (≈ 8.07 µM) | – | – | – | – | CCNc1cc(F)cc2c1[nH]c1ncc(-c3cncc(C#N)c3)c(-n3cc(CO)c(C(F)(F)F)n3)c12
0.25 (≈ 0.476 µM) | 2 (≈ 3.81 µM) | – | 9.55 | 8.3 (≈ 15.8 µM) | 60.1 | CCNc1cc(F)cc2c1[nH]c1ncc(-c3cnc(NC4CCNC4)nc3)c(-n3ccc(C(F)(F)F)n3)c12 (stereo not drawn)
< 0.25 | 1 (≈ 2.24 µM) | – | – | < 1 | – | CCNc1cc(F)cc2c1[nH]c1ncc(-c3cncc(C#N)c3)c(-n3ccc(C(F)F)n3)c12
0.63 (≈ 1.23 µM) | 1 (≈ 1.95 µM) | – | 8.62 | – | – | CCNc1cc(F)cc2c1[nH]c1ncc(-c3cnc(OC4CNC4)nc3)c(-n3ccc(C(F)(F)F)n3)c12
< 0.25 | 0.5 (≈ 1.03 µM) | – | – | < 1 | 57.2 | CCNc1cc(F)cc2c1[nH]c1ncc(-c3cnc([C@@H](C)O)nc3)c(-n3ccc(C(F)(F)F)n3)c12
– | 2 (≈ 4.42 µM) | – | – | – | 20.2 | CCNc1cc(F)cc2c1[nH]c1ncc(-c3cncc(C#N)c3)c(-n3ncc4c3CNCC4)c12
– | 4 (≈ 8.84 µM) | – | – | 200 (≈ 442 µM) | 52.1 | CCNc1cc(F)cc2c1[nH]c1ncc(-c3cncc(C#N)c3)c(-n3ncc4c3CCNC4)c12
< 0.25 | 1 (≈ 2.35 µM) | – | – | < 0.3 | – | CCNc1cc(F)cc2c1[nH]c1ncc(-c3cncc(C#N)c3)c(-n3ccc(CC)n3)c12
< 0.25 | 0.5 (≈ 1.03 µM) | – | – | < 0.2 | 52.8 | CCNc1cc(F)cc2c1[nH]c1ncc(-c3cnc([C@H](C)O)nc3)c(-n3ccc(C(F)(F)F)n3)c12
< 0.25 | < 0.25 | – | – | – | – | CCNc1cc(F)cc2c1[nH]c1ncc(-c3cnc(C(=O)NC)nc3)c(-n3ccc(C(F)(F)F)n3)c12
2 (≈ 4.69 µM) | 16 (≈ 37.5 µM) | – | – | – | – | CCNc1cc(F)cc2c1[nH]c1ncc(-c3cncc(C#N)c3)c(-n3ccc(CN)n3)c12
< 0.016 | 1 (≈ 2 µM) | – | – | 9 (≈ 18 µM) | 44 | CCNc1cc(F)cc2c1[nH]c1ncc(-c3cnc(CC(=O)O)nc3)c(-n3ccc(C(F)(F)F)n3)c12
– | > 16 | – | – | – | – | CCNc1cc(F)cc2c1[nH]c1ncc(-c3cncc(C#N)c3)c(-n3nc(C(F)(F)F)cc3CO)c12
< 0.25 | 0.5 (≈ 1.01 µM) | 3.42 | – | – | – | CCNc1cc(F)cc2c1[nH]c1ncc(-c3cncc(C(=O)NC)c3)c(-n3ccc(C(F)(F)F)n3)c12
< 0.25 | 1 (≈ 2 µM) | – | – | < 1 | 58.7 | CCNc1cc(F)cc2c1[nH]c1ncc(-c3cnc(C(C)(C)O)nc3)c(-n3ccc(C(F)(F)F)n3)c12
4 (≈ 8.24 µM) | 16 (≈ 33 µM) | – | – | – | – | CCNc1cc(F)cc2c1[nH]c1ncc(-c3cnc(C(=O)O)nc3)c(-n3ccc(C(F)(F)F)n3)c12
